From article PMC6261607, “Novel high–throughput myofibroblast assays identify agonists with therapeutic potential in pulmonary fibrosis that act via EP2 and EP4 receptors” (PLoS ONE, 2018)
Read-outs that look alike come from different tables or passages of the source.

Columns and labels:
[1] = system: normal human lung fibroblasts (NHLF); assay: Phenotypic high-content assay (HCA) of TGF–β1–induced fibroblast–to–myofibroblast differentiation; type: cell-based; settings: for IC50: read-out: HCA IC50; for inhibition at 10 µM: read-out: Effect HCA at 10 µM [% inhibition]
Protocol: (§1) The plate was washed 3 times with starvation medium, e.g. fibroblast basal medium (FBM, Lonza) supplemented with 0.1% faf BSA, 100 units / ml of penicillin and 100 μg / ml of streptomycin and 250 ng / ml amphotericin B, and then starved for 24 h in 30 μl volume. NHLF were differentiated into myofibroblasts by incubation with 5 ng / ml TGF–β1 (from a stock of 20 μg / ml in 4 mM HCl, 1 mg / ml BSA) for 48 h. Compounds were prepared as 5x stocks in starvation medium and added to the starved cells to a final 1x concentration concomitant with TGF–β1 addition. The final DMSO concentration in the assay was 0.6% in all wells. 48 h after TGF–β1 addition, the medium was removed and the cells were fixed in methanol for 10 min at room temperature (RT). After fixation, cells were washed 3 times with 1 x PBS and either stored at 4°C for up to 3 days or further processed. […] Images were acquired on the Opera Phenix confocal high–content screening system (Perkin Elmer) using the 20–x water immersion lens.
(§2) DAPI stained nuclei were used to identify cells. α–SMA and FN regions were then identified and mapped to the corresponding nuclei for background correction, cell segmentation and cell feature computation to identify, classify and weigh over 400 features per cell. The computed features (S1 Table) comprise, but are not limited to, granularity, intensity, texture, area, shape and solidity of a cell in both α–SMA–and FN–expressing regions. The 0% compound effect (5 ng / ml TGF–β1) and the 100% compound effect (0 ng / ml TGF–β1) controls, were used to train and validate a support vector machine (SVM), a supervised learning model with associated learning algorithm that, once successfully validated, was applied to every cell in every well of the assayed microtiter plate. The SVM allowed autonomous weighting and classification of the characteristics and thus enabled the classifier to decide which characteristics were most relevant for the differentiation of the cell types. […] The classification of each cell was aggregated to a cell type ratio per well, represented as the computed percentage effect value per well indicative of the degree of myofibroblast differentiation. E.g. 100% equals complete myofibroblast differentiation, 0% indicates a pure fibroblast population without any signs of differentiation.

[2] = system: normal human lung fibroblasts (NHLF); assay: Impedance measurement of TGF–β1–induced myofibroblast transition (IPQA), standard assay; type: cell-based; settings: 5 ng/ml TGF–β1, compound added with TGF–β1, impedance at t = 20 h post TGF–β1, mean ± SD, read-out: Impedance IC50
Protocol: To measure dynamic cell shape and adhesion changes during fibrotic transdifferentiation, NHLF were seeded at a density of 20,000 cells per well in FGM–2 growth medium (Lonza) containing 100 units / ml of penicillin and 100 μg / ml of streptomycin into E–plates with continued impedance signal measurement (xCELLigence system, Roche Applied Science). After overnight growth, the medium was exchanged for FBM (Lonza) supplemented with 100 units / ml of penicillin and 100 μg / ml of streptomycin and 0.1% faf BSA and cells were starved for 32 h. Compound dilution series were added and myofibroblast transition was induced by adding TGF–β1 at a concentration of 5 ng / ml, followed by continued impedance sampling for up to 48 h. For data analysis, impedance raw traces were normalized to the time point of compound addition and the baseline response (DMSO, non–TGF–β1 treated cells) was subtracted. In some cases, impedance values at defined time points were used to generate concentration–response curves to determine compound potency and efficacy using GraphPad Prism software version 7 (GraphPad Software Inc).

[3] = system: COL1 protein in NHLF cells; assay: RapidFire MS/MS quantification of COL1 (IPQA), standard assay; type: cell-based, human; settings: NHLF, 5 ng/ml TGF–β1, lysed 48 h after TGF–β1, normalized to tubulin, mean ± SD, read-out: MS / MS COL1 IC50
Protocol: (§3) Cell culture medium was removed and cells were lysed on ice by adding 5 μl / well of pre–cooled protein extraction buffer containing 10 mM Tris–HCl (pH 8.0), 6 M urea and 2 M thiourea and shaking on ice on a plate shaker at 600 rpm for 30 min.
(§4) Cell lysate was transferred to a 96–well polypropylene–PCR–plate. 15 μl / well denaturation buffer (6 M urea, 50 mM ammonium bicarbonate) and 2 μl / well of 50 mM TCEP were added and samples were denatured for 1 h at 60°C using the Veriti 96–well Fast Thermal Cycler System (Applied Biosystem) with a heated lid. Plates were allowed to cool to RT. Subsequently, 2 μl of 100 mM iodoacetamide were added per well to derivatize cysteine residues. Plates were then sealed and vortexed for 2 min in the dark and incubated for 30 min at 37°C in a thermal cycler with a heated lid. 90 μl of 50 mM ammonium bicarbonate pH 7.8 were added, followed by the addition of 10 μl of trypsin at 0.02 μg / ml. Samples were trypsin–digested overnight at 37°C in a thermal cycler with heated lid. […] Samples were desalted under vacuum using an Oasis HLB 96–well (30 μm particle size, 5 mg sorbent / well) reverse phase cartridge according to the manufacturer’s instructions and eluted with 170 μl of 90% acetonitrile, 0.1% formic acid. Samples were dried down with a flow of nitrogen at 40°C, left to cool to RT and re–suspended in 40 μl 5% acetonitrile, 0.1% formic acid on a plate shaker set to 1400 rpm for 5 min. Plates were centrifuged at 4,000 rpm for 10 min and 2 times 12 μl / well of supernatant were transferred into separate 96–well plates (Greiner Bio–One), sealed and stored at 4°C until analyzed by MS / MS.
(§5) Surrogate tryptic peptides were chosen for detection of COL1 (COL1A1), α–SMA (ACTA) and tubulin (TBA1A1) and crude synthetic peptides were purchased from Thermo Fischer. After several rounds of optimization following standard workflows, […] (COL1 / COL1A1), […] (α–SMA / ACTA) and […] LC–MS / MS analysis was performed on a RapidFire™ RF360 system (Agilent Technologies) coupled to an API 5500 (ABSciex) with positive ion electrospray ionization. […] Detection was performed using multiple reaction monitoring (MRM) mode to monitor parent⟶product ion transitions (m / z). […] The source parameters were curtain gas (CUR) nitrogen: 20 psig; collision gas (CAD): 7 psig; ion source gas 1: 50.0 psig; ion source gas 2: 50.0 psig; ion spray voltage (IS): 5500 V; turbo heater temperature (TEM): 600°C; entrance potential (EP): 10V. Peak areas for COL1A1 and ACTA were normalized by dividing by TBA1A peak area.

[4] = system: α–SMA protein in NHLF cells; assay: RapidFire MS/MS quantification of α–SMA (IPQA), standard assay; type: cell-based, human; settings: NHLF, 5 ng/ml TGF–β1, lysed 48 h after TGF–β1, normalized to tubulin, mean ± SD, read-out: MS / MS α–SMA IC50
Protocol: as §3, §4, §5

NHLF cells = assay: RealTime–Glo MT viability assay
Protocol: The effect of compounds on cell viability was assessed by quantifying the relative metabolic activity of cells using the non–lytic luminescence–based RealTime–Glo™ MT cell viability assay (Promega) according to the manufacturer’s instructions.

[5] = system: normal human lung fibroblasts (NHLF); assay: Nuclear count in the HCA, standard assay; type: cell-based; settings: read-out: Nuclear count IC50
Protocol: as §1, §2

[6] = NHLF, 5 ng/ml TGF–β1 for 48 h, compound added with TGF–β1, mean ± SD
[7] = Homo sapiens, Fibroblast, 48 h, NHLF, 5 ng/ml TGF–β1 for 48 h, compound added with TGF–β1, mean ± SD
[8] = Homo sapiens, Fibroblast, 10 µM compound, 5 ng/ml TGF–β1, 48 h
[9] = Homo sapiens, Fibroblast, 48 h, standard HCA, NHLF, 5 ng/ml TGF–β1, 48 h

| Structure (SMILES) | IC50 [1, 6] | IC50 [2] | IC50 [3] | IC50 [4] | IC50 [1, 7] | inhibition at 10 µM [1, 8] | IC50 [5, 9] | Effect on viability at 10 µM [% reduction] (NHLF cells; 10 µM compound) | other results |
| --- | --- | --- | --- | --- | --- | --- | --- | --- | --- |
| CCOc1cc(N2CCC(O)CC2)ccc1Nc1ncc2c(n1)N(C)c1ccccc1C(=O)N2C [XMD 8–92] | 12 µM | 4.4 µM | 5.4 µM | 2.4 µM |  |  |  |  |  |
| Nc1[nH]nc2nnc(-c3c(-c4ccccc4)nn4ccccc34)cc12 [FR180204] | > 46 µM | 50 µM | 36 µM | 49 µM |  |  |  |  |  |
| CCCCCCCC(=O)c1c(O)cc(O)cc1CC(=O)OCC [Csn–B] | 39 µM | > 50 µM | > 50 µM | > 50 µM |  |  |  |  |  |
| O=C(NCc1cccc(O)c1)Nc1nc(-c2ccncc2)cs1 [RKI 1447] | 4.3 µM | 8.4 µM | 12.2 µM | 0.15 ± 0.022 µM |  |  |  |  |  |
| Cc1cccc(-c2[nH]c(C(C)(C)C)nc2-c2ccc3nccnc3c2)n1 [SB525334] | 2.5 µM | 0.12 ± 0.025 µM | 0.38 ± 0.11 µM | 0.09 ± 0.005 µM |  |  |  |  |  |
| Cc1ccccc1-n1c(Cn2cnc3c(N)ncnc32)nc2cccc(C)c2c1=O [IC–87114] | 44 µM | > 5 µM | 4.9 µM | > 5 µM |  |  |  |  |  |
| Oc1c2ccccc2c2c3c(cccc13)N=N2 [SP600125] |  |  |  |  | > 46 µM |  |  |  | IC50 ([2]; Fibroblast): 48.5 µM; IC50 ([3]; Homo sapiens, Col1): 36 µM; IC50 ([4]; Homo sapiens): 38 µM |
| COc1cc(O)c2c(c1)/C=C/C[C@H](O)[C@H](O)C(=O)/C=C\C[C@H](C)OC2=O [5Z–7–Oxozeaenol] | 2.6 µM | 0.25 ± 0.17 µM | 0.46 ± 0.27 µM | 0.3 ± 0.27 µM |  |  |  |  |  |
| O=C(Nc1cccc(Nc2ncc(Br)c(NCCc3cnc[nH]3)n2)c1)N1CCCC1 [BX–912] | 17 µM | 7.5 µM | 8.7 µM | 8.6 µM |  |  |  |  |  |
| Cc1cc(N)c2ccccc2[n+]1CCCCCCCCCC[n+]1c(C)cc(N)c2ccccc21 [Dequalinium dichloride] |  |  |  |  | 5.8 µM | 67% | > 25 µM |  | Effect on viability at 10 µM [% reduction] (NHLF cells; human, 10 µM): 39 % reduction |
| C[C@@H]1C[C@@H]([C@H](O)CC2CC(=O)NC(=O)C2)C(=O)[C@@H](C)C1 [Cycloheximide] |  |  |  |  |  |  |  | 27 % reduction | inhibition at 10 µM ([1]; Homo sapiens, Fibroblast, 48 h): 91%; IC50 ([1]; Homo sapiens, Fibroblast, 48 h): 0.109 µM; IC50 ([5]; Homo sapiens, Fibroblast, 48 h): > 25 µM |
| C[C@@H]1O[C@@H](O[C@H]2C[C@@H](O)[C@]3(CO)[C@H]4[C@H](O)C[C@]5(C)[C@@H](C6=CC(=O)OC6)CC[C@]5(O)[C@@H]4CC[C@]3(O)C2)[C@H](O)[C@H](O)[C@H]1O [Ouabain] |  |  |  |  | 0.012 µM | 100% | > 25 µM | 15 % reduction |  |
| Nc1c2ccccc2nc2ccccc12 [Aminacrine] |  |  |  |  | 6 µM | 97% | 24 µM | 2 % reduction |  |
| CC[C@H]1CN2CCc3cc(OC)c(OC)cc3[C@@H]2C[C@@H]1C[C@H]1NCCc2cc(OC)c(OC)cc21 [Emetine] |  |  |  |  | 0.071 µM | 100% | > 25 µM | 25 % reduction |  |
| C[C@H]1O[C@@H](O[C@H]2[C@@H](O)C[C@H](O[C@H]3[C@@H](O)C[C@H](O[C@H]4CC[C@@]5(C)[C@H](CC[C@@H]6[C@@H]5C[C@@H](O)[C@]5(C)[C@@H](C7=CC(=O)OC7)CC[C@]65O)C4)O[C@@H]3C)O[C@@H]2C)C[C@H](O)[C@@H]1O [Digoxin] |  |  |  |  |  |  |  |  | Effect on viability at 10 µM [% reduction] (NHLF cells; human, 10 µM): 19 % reduction; inhibition at 10 µM ([1]; Homo sapiens, Fibroblast, 48 h): 87%; IC50 ([1]; Homo sapiens, Fibroblast, 48 h): 0.01 µM; IC50 ([5]; Homo sapiens, Fibroblast, 48 h): > 25 µM |
| CCOc1ccc2nc3cc(N)ccc3c(N)c2c1 [Ethacridine lactate monohydrate] |  |  |  |  | 7.5 µM | 73% | > 25 µM | –9 % reduction |  |
| Clc1cc(Cl)c(OCC#CI)cc1Cl [Haloprogin] |  |  |  |  | 1.3 µM | 77% | 4.5 µM | 61 % reduction |  |
| CCSc1ccc2c(c1)N(CCCN1CCN(C)CC1)c1ccccc1S2.O=C(O)CC(O)C(=O)O.O=C(O)CC(O)C(=O)O [Thiethylperazine dimalate] | 8.5 µM |  |  |  |  |  |  |  | Effect on viability at 10 µM [% reduction] (NHLF cells): 34 % reduction; Effect HCA at 10 µM [% inhibition] ([1]; 10 µM compound, 5 ng/ml TGF–β1, 48 h): 76 % inhibition; IC50 ([5]; standard HCA, NHLF, 5 ng/ml TGF–β1, 48 h): 13 µM |
| CC(C)(C)c1nc(-c2cccc(NS(=O)(=O)c3c(F)cccc3F)c2F)c(-c2ccnc(N)n2)s1 [Dabrafenib (GSK2118436), Dabrafenib] |  |  |  |  | 2.9 µM | 56% | > 25 µM | 9 % reduction |  |
